Experimental data reported in article PMC7719179, “Small molecule inhibition of Dynamin-dependent endocytosis targets multiple niche signals and impairs leukemia stem cells” (Nature Communications, 2020).
Values joined by “and” are separate entries in the source; they are usually repeats but may differ in a detail not shown here. Equal entries are not always repeated.

Tested on: AML01-307 and AML18 patient-derived xenografts
Assay: Xenograft models of human AML (AML01-307, AML18): leukemic burden in blood, bone marrow, spleen; spleen weight
Assay type: in vivo
Experimental: Patient-derived xenograft models were established as previously described[97],[98]. All experiments were pre-approved by the Human Research Ethics Committee of the University of New South Wales (UNSW), the UNSW Animal Care and Ethics Committee, the Alfred Health Human Ethics Committee and the AMREP Animal Ethics Committee. For transplantation assays, 10^6 splenocytes harvested from successfully engrafted primary human ETP-ALL or T-ALL xenografts were injected into nonobese diabetic/severe combined immunodeficient (NOD.Cg-Prkdc^scid, also termed NOD/SCID) or NOD/SCID/Il2rg^tm1wjl/SzJ (NSG) mice[99]. Moreover, 1.5 × 10^6 cells splenocytes harvested from successfully engrafted patient-derived AML xenografts were injected into nonobese diabetic/severe immunodeficient (NOD.Cg-Rag1^tm1MomIl2rg^tm1wjl/SzJ, also termed NRG) mice expressing human IL-3, human GM-CSF and human SCF from the SGM3 triple transgene (NRGS)[100]. Engraftment into recipients was monitored by FACS analysis of peripheral blood as previously described. […] Both males and females were used. […] Kaplan–Meier survival and statistical analyses were performed using GraphPad Prism. 6.0 software (GraphPad Software, Inc.).
Spleen and sternum from recipients were collected, incubated at least 24 h in 3.7% neutral buffered formalin (pH 7.4), embedded in paraffin and sectioned at 8 μm onto Superforst-Plus slides. Samples were incubated with an anti-human CD45 antibody (Dako, #M0701) in Dako Autostainer Plus solution, then incubated with a sheep anti-mouse IgG conjugated to HRP and processed as per standard protocols using 3,3’ Diaminobenzidine staining (#ab64238, Abcam) for all immunoblots, as previously described. Samples were imaged and annotated using an Aperio ScanScope and software system (Leica Biosystems). […]

CCCCCCCCNC(=O)C(C#N)=Cc1cn(CCCN(C)C)c2ccccc12 [Dynole 34-2, 2-Cyano-N-octyl-3-(1-(3-dimethylaminopropyl)-1H-indol-3-yl)-acrylamide]
Absolute numbers human CD45+ cells (AML01-307, BM): 749000 and 744000 and 1060000 | Absolute numbers human CD45+ cells (AML01-307, Spleen): 5750000 and 6290000 and 9130000 | Proportion of hCD45+ (%) in peripheral blood (AML01-307, time 1 weeks): 0.7% and 0.2% and 0.4% and 0.1% | Proportion of hCD45+ (%) in peripheral blood (AML01-307, time 2 weeks): 0.7% and 1.2% and 3.7% and 1% and 1.9% and 0.8% | Proportion of hCD45+ (%) in peripheral blood (AML01-307, time 3 weeks): 2.8% and 3.7% and 3.9% and 4.4% and 5.1% and 2% and 1.3% | Proportion of hCD45+ (%) in peripheral blood (AML01-307, time 4 weeks): 5.1% and 5.66% and 9.2% and 9% and 8.38% and 2.7% and 2.566% and 4.8% | Proportion of hCD45+ (%) in peripheral blood (AML01-307, time 5 weeks): 5.6% and 7.7% and 4.3% and 6.7% and 5.2% and 3.11% and 3.44% and 4.93% | Proportion of hCD45+ (%) in peripheral blood (AML01-307, time 6 weeks): 17.22% | Proportion of hCD45+ (%) in peripheral blood (AML01-307, time 8 weeks): 18.86% and 22% and 33.26% and 20.57% and 30.66% and 22.85% | Proportion of hCD45+ (%) in peripheral blood (AML01-307, time 9 weeks): 36.6% and 52.3% and 29.5% and 40.0% | Absolute numbers human CD45+ cells (AML18, BM): 436000 and 427000 and 629000 and 665000 | Proportion of hCD45+ (%) in peripheral blood (AML18, time 1 weeks): 0.1% and 0.2% and 0.6% and 0.5% and 0.0% and 0.4% | Proportion of hCD45+ (%) in peripheral blood (AML18, time 4 weeks): 31.4% | Proportion of hCD45+ (%) in peripheral blood (AML18, time 7 weeks): 30.6% and 36.7% | Proportion of human CD45 (%) in peripheral blood (AML18 xenograft recipients): 2% and 5.6% and 2.4% and 1.6% and 4.8% and 5% and 2.26% and 2.3% | Spleen weight (PDX AML01-307): 0.115 g and 0.137 g and 0.108 g | Spleen weight (PDX AML18): 0.297 g and 0.287 g and 0.182 g and 0.316 g
